In patent US10344330B2, “Glatiramer acetate response biomarker mRNA potency assay” (Mylan Inc., priority 2013, dated 2019):
Several values for one entry are separate records, joined by “and”; a condition that tells them apart may be missing. Equal entries are not always repeated.

What was measured:
secreted IL-2 = test: Secreted IL-2 from treated LN cells (other experiments, data not shown); type: cell-based, mouse; details: increasing concentrations
Text: This dose-dependent response was consistent for both test and reference compounds independent of whether Copaxone® or Mylan GMA was used as the immunizing antigen.

mIL-2 mRNA in LN cells = mIL-2 mRNA in LN cells of Copaxone P53974-immunized CSJLF1/JRj mice, three identical experiments, GAPDH and β-actin reference (Example VII); type: cell-based, mouse; details: 2.5 μg/mL, 6 hours
Description: (§1) A real-time polymerase chain reaction method was used to measure the expression of IL-2, IL-4, IL-5, and IL-13 mRNA in GA-stimulated LN cells from GA-immunized mice. Three identical experiments were carried out. In each experiment, mice were immunized with GA, and LN cells from each group of mice were stimulated with each of six concentrations of the same batch of GA used for immunization. GAPDH and β-actin were used as reference genes.
(§2) Each of the three groups consisted of four female CSJLF1/JRj (Janvier Labs) mice, approximately 8-12 weeks of age. On Day 0, mice were immunized by injection of 0.1 mL injection volume into four footpads (about 10 μL into each of the front footpad, 40 μL into each of the hind footpad). The immunization contained a total dose of 250 μg of one lot of GA (Copaxone batch P53974)+CFA (0.5 mg/mL). On Day 10 post-immunization, lymph cells were isolated from animals and stimulated with enriched DCCM-1 (mock-stimulated vehicle control), 2.5 μg/mL Concanavalin A (ConA, a positive control) or GA.
(§3) Ten days following immunization, LN cell samples isolated from the immunized mice each were stimulated with 0.3, 1, 2.5, 5, 10, or 20 μg/mL of Copaxone batch P53974 as shown in Table 43.
(§4) Total RNA was isolated from stimulated LN cells after 6 hours of incubation at about 37° C. in a humidified CO2 incubator, using the SV 96 Total RNA Isolation System according to the manufacturer's protocol (Promega, Cat. #Z3500). cDNA was synthesized from each RNA sample in triplicate using High Capacity cDNA Reverse Transcription Kit (Life Technologies, formerly Applied Biosystems) according to the manufacturer's protocol.
(§5) Samples were prepared using TaqMan Universal PCR Master Mix II (Life Technologies) and run in 96-well plates using a Real-Time PCR system (7500, Life Technologies) using the following program for Real-Time PCR:
(§6) The levels of cytokine mRNA were calculated using a standard ΔΔCT method as described previously.

[1] = test system: mouse IL-2 mRNA in primary LN cells; test: Mouse IL-2 mRNA in LN cells of Copaxone P53974-immunized CSJLF1/JRj mice stimulated with twelve GA lots (Example VIII); type: cell-based
Description: (§7) A real-time polymerase chain reaction method was used to measure the expression of IL-2, IL-4, IL-5, and IL-13 mRNA in LN cells, from GA-immunized mice, following stimulation with one of twelve GA lots. One lot of GA (Copaxone P53974) was used for immunization. […] Twenty female CSJLF1/JRj mice (Janvier Labs), approximately 8-12 weeks of age, were immunized by injection of 0.1 mL injection volume into four footpads (about 10 μL into each of the front footpad, 40 μL into each of the hind footpad) on Day 0. […] Samples were prepared using TaqMan Universal PCR Master Mix II (Life Technologies) and run in 96-well plates using a Real-Time PCR system (7500, Life Technologies) using the following RT-PCR program: The levels of cytokine mRNA were calculated using a standard ΔΔCT method as described previously.

[2] = test system: mouse IL-17 mRNA in primary LN cells; test: Mouse IL-17 mRNA in LN cells of Copaxone P53974-immunized CSJLF1/JRj mice stimulated with GA lots (Example VIII); type: cell-based; details: stimulation conc. 2.5 μg/mL; for IL-17 mRNA/B-Actin Fold Change: normalized to B-Actin; for IL-17 mRNA/GAPDH Fold Change: normalized to GAPDH
Description: [The procedure below names another target; the source lists this target under the same test.] as §7

[3] = test system: mouse IL-13 mRNA in primary LN cells; test: Mouse IL-13 mRNA in LN cells of Copaxone P53974-immunized CSJLF1/JRj mice stimulated with twelve GA lots (Example VIII); type: cell-based; details: stimulation conc. 2.5 μg/mL; normalized to B-Actin
Description: as §7

[4] = test system: mouse CD25 (IL-2ra) mRNA in primary LN cells; test: Mouse CD25 mRNA in LN cells of Copaxone P53974-immunized CSJLF1/JRj mice stimulated with GA lots (Example VIII); type: cell-based; details: stimulation conc. 2.5 μg/mL, relative to DCCM1 medium control
Description: [The procedure below names another target; the source lists this target under the same test.] as §7

mIL-5 mRNA in LN cells = mIL-5 mRNA in LN cells of Copaxone P53974-immunized CSJLF1/JRj mice, three identical experiments (Example VII); type: cell-based, mouse; details: 2.5 μg/mL, 6 hours
Description: as §1, §2, §3, §4, §5, §6

mIL-13 mRNA in LN cells = mIL-13 mRNA in LN cells of Copaxone P53974-immunized CSJLF1/JRj mice, three identical experiments (Example VII); type: cell-based, mouse; details: 2.5 μg/mL, 6 hours
Description: as §1, §2, §3, §4, §5, §6

mIL-4 mRNA in LN cells = mIL-4 mRNA in LN cells of Copaxone P53974-immunized CSJLF1/JRj mice, three identical experiments (Example VII); type: cell-based, mouse; details: 2.5 μg/mL, 6 hours
Description: as §1, §2, §3, §4, §5, §6

[5] = Plate 1, positive control 2.5 μg/mL listed in the C1 section
[6] = Plate 1, positive control 2.5 μg/mL listed in the C2 section
[7] = Plate 1, positive control 2.5 μg/mL listed in the C3 section
[8] = relative to DCCM1 medium control

“L-glutamic acid polymer with L-alanine, L-lysine and L-tyrosine, acetate (salt) [GA]” was tested, and the “secreted IL-2 from treated cells” value (secreted IL-2) was “increased in dose-dependent fashion”.

With “Concanavalin A [ConA, reference compound]” the “IL-2 mRNA/Actβ Fold Change” value (mIL-2 mRNA in LN cells; Group 1) was 157.7 fold, the “IL-2 mRNA/GAPDH Fold Change” value (mIL-2 mRNA in LN cells; Group 1) was 102.9 fold and the “IL-2 mRNA/Actβ Fold Change” value (mIL-2 mRNA in LN cells; Group 2) was 137.4 fold. For the same substance, the “IL-2 mRNA/GAPDH Fold Change” value (mIL-2 mRNA in LN cells; Group 2) was 122.2 fold, the “IL-2 mRNA/Actβ Fold Change” value (mIL-2 mRNA in LN cells; Group 3) was 91.7 fold and the “IL-2 mRNA/GAPDH Fold Change” value (mIL-2 mRNA in LN cells; Group 3) was 55.8 fold. The “IL-2 mRNA/B-Actin Fold Change” value [1, 5] was 118.1 fold, the “IL-2 mRNA/GAPDH Fold Change” value [1, 5] was 116.9 fold and the “IL-2 mRNA/B-Actin Fold Change” value [1, 6] was 111.2 fold. For the same substance, the “IL-2 mRNA/GAPDH Fold Change” value [1, 6] was 103.7 fold, the “IL-2 mRNA/B-Actin Fold Change” value [1, 7] was 105.2 fold and the “IL-2 mRNA/GAPDH Fold Change” value [1, 7] was 87.6 fold. For the same substance, the “IL-2 mRNA/B-Actin Fold Change” value ([1]; stimulation conc. 2.5 μg/mL, normalized to B-Actin) was 109.3 fold and 120.1 fold and 75.2 fold and 81.3 fold and 103.6 fold and 101.9 fold and 92.2 fold and 98.9 fold, the “IL-2 mRNA/B-Actin Fold Change” value ([1]; stimulation conc. 2.5 μg/mL, normalized to B-Actin, ΔΔCT) was 106.7 fold and 96.2 fold and 103.1 fold and 120.5 fold and 121.8 fold and the “IL-2 mRNA/GAPDH Fold Change” value ([1]; stimulation conc. 2.5 μg/mL, normalized to GAPDH) was 103.2 fold and 111.7 fold and 82.0 fold and 84.8 fold and 158.0 fold and 127.7 fold and 102.6 fold and 127.5 fold. The “IL-2 mRNA/GAPDH Fold Change” value ([1]; stimulation conc. 2.5 μg/mL, normalized to GAPDH, ΔΔCT) was 100.3 fold and 92.7 fold and 99.8 fold and 147.4 fold and 131.3 fold, the “IL-17 mRNA/B-Actin Fold Change” value [2] was 133.2 fold and 224.2 fold and 128.3 fold and 204.1 fold and the “IL-17 mRNA/B-Actin Fold Change” value [2, 8] was 67.2 and 83.0 and 70.9 and 64.8. For the same substance, the “IL-17 mRNA/GAPDH Fold Change” value [2] was 125.8 fold and 208.6 fold and 139.9 fold and 213.0 fold, the “IL-17 mRNA/GAPDH Fold Change” value [2, 8] was 102.6 and 104.0 and 78.8 and 83.6 and the “IL-13 mRNA/B-Actin Fold Change” value [3] was 29.3 fold. For the same substance, the “CD25 mRNA/B-Actin Fold Change” value ([4]; normalized to B-Actin) was 4.1 and 5.6 and 4.7 and 5.2 and 5.0 and 5.1, the “CD25 mRNA/GAPDH Fold Change” value ([4]; normalized to GAPDH) was 3.6 and 4.4 and 4.5 and 5.6 and 4.8 and 4.6 and 4.7 and the “IL-5 mRNA/Actβ Fold Change” value (mIL-5 mRNA in LN cells; Group 1) was 16.6 fold. The “IL-5 mRNA/GAPDH Fold Change” value (mIL-5 mRNA in LN cells; Group 1) was 12.0 fold, the “IL-5 mRNA/Actβ Fold Change” value (mIL-5 mRNA in LN cells; Group 2) was 25.4 fold and the “IL-5 mRNA/GAPDH Fold Change” value (mIL-5 mRNA in LN cells; Group 2) was 21.4 fold. The “IL-5 mRNA/Actβ Fold Change” value (mIL-5 mRNA in LN cells; Group 3) was 12.4 fold, the “IL-5 mRNA/GAPDH Fold Change” value (mIL-5 mRNA in LN cells; Group 3) was 8.6 fold and the “IL-13 mRNA/Actβ Fold Change” value (mIL-13 mRNA in LN cells; Group 1) was 33.3 fold. For the same substance, the “IL-13 mRNA/GAPDH Fold Change” value (mIL-13 mRNA in LN cells; Group 1) was 24.1 fold, the “IL-13 mRNA/Actβ Fold Change” value (mIL-13 mRNA in LN cells; Group 2) was 28.4 fold and the “IL-13 mRNA/GAPDH Fold Change” value (mIL-13 mRNA in LN cells; Group 2) was 23.8 fold. For the same substance, the “IL-13 mRNA/Actβ Fold Change” value (mIL-13 mRNA in LN cells; Group 3) was 25.7 fold, the “IL-13 mRNA/GAPDH Fold Change” value (mIL-13 mRNA in LN cells; Group 3) was 17.8 fold and the “IL-4 mRNA/Actβ Fold Change” value (mIL-4 mRNA in LN cells; Group 1) was 54.5 fold. For the same substance, the “IL-4 mRNA/GAPDH Fold Change” value (mIL-4 mRNA in LN cells; Group 1) was 35.6 fold, the “IL-4 mRNA/Actβ Fold Change” value (mIL-4 mRNA in LN cells; Group 2) was 38.5 fold and the “IL-4 mRNA/GAPDH Fold Change” value (mIL-4 mRNA in LN cells; Group 2) was 34.2 fold. The “IL-4 mRNA/Actβ Fold Change” value (mIL-4 mRNA in LN cells; Group 3) was 35.7 fold and the “IL-4 mRNA/GAPDH Fold Change” value (mIL-4 mRNA in LN cells; Group 3) was 21.8 fold.
